Assay results from patent US6627732B1, “Glutathione derivatives and their dosage forms” (Teijin Limited, priority 1998, dated 2003).

Assay: Fat emulsion: particle distribution and content after 1.2 μm filtration (Examples 17, 18)
Assay type: physicochemical
Details: final concentration about 1 mg/ml
Procedure: Preparation of the fat emulsion having as an active ingredient the glutathione derivative of Example 4 was carried out using a high-pressure injection type homogenizer.
(1) The high-pressure injection type homogenizer used was Nanomizer LA from Nanomizer K.K. Purified yolk lecithin, purified soybean oil, and glycerin used were those that can be intravenously injected.
(2) Purified yolk lecithin 6 g and purified soybean oil 55 g were mixed by a mixer while heating to homogeneity. To this was added 560 mg of the glutathione derivative of Example 4 and was further stirred to homogeneity. A suitable amount of glycerin and water for injection were added and rough-emulsified by a mixer, and pH was adjusted to 7.4 with an aqueous solution of sodium hydroxide. Water was further added to a total amount of 560 g, which was pure-emulsified using the Nanomizer LA at an emulsification pressure of 550 kgf/cm^2 by passing it through the emulsion part for 11 times. […]
When the emulsion was crushed with tetrahydrofuran before and after filtration with a 1.2 μm filter and the content of the glutathione derivative of Example 4 was measured by HPLC, it was confirmed that the content of 90% or more of that before filtration was retained, homogeneity was good, and the glutathione derivative of Example 4 was stably mixed in the oil phase emulsion particles. […]

CCCCCCCCCCCCCCCCOC(=O)[C@@H](N)CCC(=O)N[C@@H](CSCc1ccccc1)C(=O)N[C@@H](C(=O)OCC)c1ccccc1.Cl [Example 4, Glu(Cys(Bzl)-D-Phg-OEt)-O(Hexadecyl)hydrochloride]
Content after filtration with a 1.2 μm filter (alcohol solution mixed with water for injection): ≤ 75%
Behaviour on mixing alcohol solution with water for injection: immediately crystallized
